What is called IC50 is the concentration at which inhibition is half-maximal.

The target in assay [1] is p38a activated, mitogen-activated protein kinase-activated protein kinase 2 (MAPKAP-K2 or MK-2) enzyme (Homo sapiens (Human), UniProt P49137). In words: MK2 Omnia continuous-read kinase assay for compound potency. The format is biochemical. Particulars: [MK-2]=0.4 nM, [ATP]=1.0 mM, [ST3-Sox]=10 μM. Summed up: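 Continuous Omnia fluorescence read (λex360/λem485) every 71 s after starting with 0.4 nM MK-2, with 1.0 mM ATP (appKM 8-10 μM) and 10 μM ST3-Sox substrate.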
Chain of p38a activated, mitogen-activated protein kinase-activated protein kinase 2 (MAPKAP-K2 or MK-2) enzyme (P49137 whole entry): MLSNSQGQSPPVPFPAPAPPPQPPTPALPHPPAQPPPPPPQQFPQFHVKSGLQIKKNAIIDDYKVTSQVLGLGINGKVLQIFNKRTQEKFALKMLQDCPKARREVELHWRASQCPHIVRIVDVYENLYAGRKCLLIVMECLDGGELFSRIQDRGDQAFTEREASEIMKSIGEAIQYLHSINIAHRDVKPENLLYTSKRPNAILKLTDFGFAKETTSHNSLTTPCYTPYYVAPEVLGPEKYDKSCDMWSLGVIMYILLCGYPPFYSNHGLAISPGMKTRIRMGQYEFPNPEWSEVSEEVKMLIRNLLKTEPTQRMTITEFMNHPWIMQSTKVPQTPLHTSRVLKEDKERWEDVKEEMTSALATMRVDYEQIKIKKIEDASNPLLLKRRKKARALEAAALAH

Assay [2] concerns the target T1, MK2 (Homo sapiens (Human), UniProt P49137). The assay can be described thus: MK2 modification assessment by whole protein mass spectrometry. In kind it is binding. The settings on record: intact MK2, 60 min, 10-fold excess of compound to protein. Summed up: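 MK2 treated with compound is analysed intact by MALDI-TOF after C4 cleanup in sinapinic acid matrix. Percent modification is the centroid mass shift against control MK2 divided by compound mass.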

Assay [3] addresses T1, MK2. The assay can be described thus: MK2 cellular assay (Hsp27 phosphorylation in Thp-1 cells). Particulars: differentiated Thp-1 cells, compound 1 hour, 50 ng/ml LPS 15 minutes, phosphorylation of Hsp27; read-out: MK2EC50. In kind it is cell-based. The procedure:
Compounds were assayed in Thp-1 human acute monocytic leukemia cells to measure inhibition of MK2 activity. Thp-1 were grown in suspension in T225 flasks. Two days prior to assay, Thp-1 cells were spun down, counted and plated at 1×10^6 cells per well of a 12 well plate in complete media containing 10 ng/ml PMA (phorbol myristate acetate) to differentiate the cells. On day of assay, cells were washed with complete media, and compound was added to differentiated Thp-1 cells for 1 hour. Cells were washed again, and complete media containing 50 ng/ml LPS (lipopolysaccharide) was added. After 15 minutes, cells were washed once with PBS and lysed on ice with BioRad Bioplex lysis buffer. 20 μg total protein from lysates were loaded on gel and blots were probed for phosphorylation of the MK2 substrate Hsp27. Dose response inhibition of MK2 signaling in differentiated Thp-1 cells was used to determine the EC50 for compounds reported in Table A in the column entitled “MK2 EC50.”

Each structure is given as a SMILES string.

T1 sequence (P49137 whole entry): as above

Turning to `C=CC(=O)N1CCc2ccc(NC(=O)c3ccc4cc5n(c4c3)C3(CCC3)CNC5=O)cc21` [Compound V-45, N-(1-acryloylindolin-6-yl)-1′-oxo-2′,3′-dihydro-1′H-spiro[cyclobutane-1,4′-pyrazino[1,2-a]indole]-7′-carboxamide], the IC50 in assay [1] was below 0.1 µM. Also, the “MK2 Mass Mod” value on MK2 [2] is listed as “E (mass modification of ≥70%)”. The EC50 at MK2 [3] is 0.101 to 0.5 µM.

In the case of `C=CC(=O)N1CC(C)(C)Oc2ccc(NC(=O)c3ccc4cc5n(c4c3)C3(CCC3)CNC5=O)cc21` [Compound V-51, N-(4-acryloyl-2,2-dimethyl-3,4-dihydro-2H-benzo[b][1,4]oxazin-6-yl)-1′-oxo-2′,3′-dihydro-1′H-spiro[cyclobutane-1,4′-pyrazino [1,2-a]indole]-7′-carboxamide], in assay [1], the IC50 is below 0.1 µM. The “MK2 Mass Mod” value at MK2 [2] is “E (mass modification of ≥70%)”. Besides, the EC50 at MK2 [3] was 0.101 to 0.5 µM.

Consider `C=CC(=O)Nc1cc(NC(=O)c2ccc3cc4n(c3c2)C2(CCC2)CNC4=O)ccc1F` [Compound V-54, N-(3-acrylamido-4-fluorophenyl)-1′-oxo-2′,3′-dihydro-1′H-spiro[cyclobutane-1,4′-pyrazino[1,2-a]indole]-7′-carboxamide], for which, in assay [1], the IC50 was 0.101 to 0.5 µM. Besides, the “MK2 Mass Mod” value at MK2 [2] was “E (mass modification of ≥70%)”. Moreover, the EC50 at MK2 [3] was 0.101 to 0.5 µM.

For the compound `C=CC(=O)Nc1ncccc1NC(=O)c1ccc2cc3n(c2c1)C1(CCC1)CNC3=O` [Compound V-57, N-(2-acrylamidopyridin-3-yl)-1′-oxo-2′,3′-dihydro-1′H-spiro[cyclobutane-1,4′-pyrazino[1,2-a]indole]-7′-carboxamide], the IC50 in assay [1] is below 0.1 µM. Besides, the “MK2 Mass Mod” value at MK2 [2] is “E (mass modification of ≥70%)”. Also, the EC50 at MK2 [3] lay in the range of 0.101 to 0.5 µM.

In the case of `C=CC(=O)Nc1cc(C2CCN(C)CC2)cc2oc(-c3ccc4cc5n(c4c3)C3(CCC3)CNC5=O)nc12` [Compound V-61, N-(6-(1-methylpiperidin-4-yl)-2-(1′-oxo-2′,3′-dihydro-1′H-spiro[cyclobutane-1,4′-pyrazino [1,2-a]indol]-7′-yl)benzo[d]oxazol-4-yl)acrylamide], the IC50 in assay [1] was below 0.1 µM. Moreover, the “MK2 Mass Mod” value at MK2 [2] is “E (mass modification of ≥70%)”. For the same compound, the EC50 on MK2 [3] is below 0.1 µM.

With `C=CC(=O)Nc1cc(Cl)cc2oc(-c3ccc4cc5n(c4c3)C3(CCC3)CNC5=O)nc12` [Compound V-62, N-(6-chloro-2-(1′-oxo-2′,3′-dihydro-1′H-spiro[cyclobutane-1,4′-pyrazino [1,2-a]indol]-7′-yl)benzo[d]oxazol-4-yl)acrylamide], the IC50 in assay [1] lay in the range of 0.101 to 0.5 µM. For the same compound, the “MK2 Mass Mod” value at MK2 [2] was “E (mass modification of ≥70%)”. For the same compound, the EC50 at MK2 [3] was 0.101 to 0.5 µM.

As for `C=CC(=O)Nc1cccc2[nH]c(-c3ccc4cc5n(c4c3)C3(CCC3)CNC5=O)nc12` [Compound V-63, N-(2-(1′-oxo-2′,3′-dihydro-1′H-spiro[cyclobutane-1,4′-pyrazino [1,2-a]indol]-7′-yl)-1H-benzo[d]imidazol-4-yl)acrylamide], the IC50 in assay [1] is below 0.1 µM. The “MK2 Mass Mod” value at MK2 [2] is “E (mass modification of ≥70%)”. The EC50 at MK2 [3] is below 0.1 µM.

`C=CC(=O)Nc1cc(-c2cc3c(cn2)CCc2c-3[nH]c3c2C(=O)NCC3)ccc1N1CCN(C)CC1` [II-1, N-(2-(4-methylpiperazin-1-yl)-5-(7-oxo-6,7,8,9,10,11-hexahydro-5H-pyrido[3′,4′:4,5]pyrrolo[2,3-f]isoquinolin-2-yl)phenyl)acrylamide]: in assay [1], the IC50 was below 0.1 µM. The “MK2 Mass Mod” value on MK2 [2] is “E (mass modification of ≥70%)”. In addition, the EC50 on MK2 [3] was below 0.1 µM.

In the case of `C=CC(=O)Nc1cc(-c2cc3c(cn2)CCc2c-3[nH]c3c2C(=O)NCC3)ccc1OC` [II-2, N-(2-methoxy-5-(7-oxo-6,7,8,9,10,11-hexahydro-5H-pyrido[3′,4′:4,5]pyrrolo[2,3-f]isoquinolin-2-yl)phenyl)acrylamide], the IC50 in assay [1] was below 0.1 µM. Further, the “MK2 Mass Mod” value at MK2 [2] is reported as “E (mass modification of ≥70%)”. On MK2 [3], the EC50 is below 0.1 µM.

Regarding `C=CC(=O)Nc1cc(-c2cc3c(cn2)CCc2c-3[nH]c3c2C(=O)NCC3)ccc1F` [II-3, N-(2-fluoro-5-(7-oxo-6,7,8,9,10,11-hexahydro-5H-pyrido[3′,4′:4,5]pyrrolo[2,3-f]isoquinolin-2-yl)phenyl)acrylamide], the IC50 in assay [1] was below 0.1 µM. In addition, the “MK2 Mass Mod” value on MK2 [2] is given as “F (mass modification of 31-69%)”. The EC50 at MK2 [3] is below 0.1 µM.

For the compound `C=CC(=O)Nc1cc(-c2cc3c(cn2)CCc2c-3[nH]c3c2C(=O)NCC3)cnc1OC` [II-4, N-(2-methoxy-5-(7-oxo-6,7,8,9,10,11-hexahydro-5H-pyrido[3′,4′:4,5]pyrrolo[2,3-f]isoquinolin-2-yl)pyridin-3-yl)acrylamide], the IC50 in assay [1] is below 0.1 µM. Moreover, on MK2 [2], the “MK2 Mass Mod” value is reported as “E (mass modification of ≥70%)”. Also, at MK2 [3], the EC50 is below 0.1 µM.

On to `C=CC(=O)Nc1cc(-c2cc3c(cn2)CCc2c-3[nH]c3c2C(=O)NC2(CC2)C3)cnc1OC` [II-5, N-(2-methoxy-5-(7′-oxo-5′,6′,7′,8′,10′,11′-hexahydrospiro[cyclopropane-1,9′-pyrido[3′,4′:4,5]pyrrolo[2,3-f]isoquinolin]-2′-yl)pyridin-3-yl)acrylamide], for which, in assay [1], the IC50 was below 0.1 µM. The “MK2 Mass Mod” value on MK2 [2] was “E (mass modification of ≥70%)”. Also, the EC50 at MK2 [3] is below 0.1 µM.

With `C=CC(=O)Nc1cc(-c2cc3c(cn2)CCc2c-3[nH]c3c2C(=O)NC2(CC2)C3)ccc1F` [II-6, N-(2-fluoro-5-(7′-oxo-5′,6′,7′,8′,10′,11′-hexahydrospiro[cyclopropane-1,9′-pyrido[3′,4′:4,5]pyrrolo[2,3-f]isoquinolin]-2′-yl)phenyl)acrylamide], in assay [1], the IC50 is below 0.1 µM. Moreover, on MK2 [2], the “MK2 Mass Mod” value is “E (mass modification of ≥70%)”. Further, on MK2 [3], the EC50 was below 0.1 µM.

Regarding `C=CC(=O)Nc1cc(-c2cc3c(cn2)CCc2c-3[nH]c3c2C(=O)NC2(CC2)C3)cnc1OCCOC` [II-8, N-(2-(2-methoxyethoxy)-5-(7′-oxo-5′,6′,7′,8′8′,1′,11′-hexahydrospiro[cyclopropane-1,9′-pyrido[3′,4′:4,5]pyrrolo[2,3-f]isoquinolin]-2′-yl)pyridin-3-yl)acrylamide], the IC50 in assay [1] is below 0.1 µM. Moreover, at MK2 [2], the “MK2 Mass Mod” value is “E (mass modification of ≥70%)”. Moreover, the EC50 on MK2 [3] was below 0.1 µM.

On to `C=CC(=O)N1CCOc2ncc(-c3cc4c(cn3)CCc3c-4[nH]c4c3C(=O)NC3(CC3)C4)cc21` [II-9, 2′-(1-acryloyl-2,3-dihydro-1H-pyrido[2,3-b][1,4]oxazin-7-yl)-5′,6′,10′,11′-tetrahydrospiro[cyclopropane-1,9′-pyrido[3′,4′:4,5]pyrrolo[2,3-f]isoquinolin]-7′(8′H)-one], for which the 50% inhibitory concentration (IC50) in assay [1] is below 0.1 µM. In addition, at MK2 [2], the “MK2 Mass Mod” value is reported as “E (mass modification of ≥70%)”. Besides, the EC50 on MK2 [3] is above 1 µM.

With `C=CC(=O)Nc1cc(-c2cc3c(cn2)CCc2c-3[nH]c3c2C(=O)NCC3)ccc1OCCCN` [II-10, N-(2-(3-aminopropoxy)-5-(7-ox-6,7,8,9,11-hexahydro-5H-pyrido[3′,4′:4,5]pyrrolo[2,3-f]isoquinolin-2-yl)phenyl)acrylamide], in assay [1], the IC50 is below 0.1 µM. The “MK2 Mass Mod” value at MK2 [2] is “E (mass modification of ≥70%)”. For the same compound, the EC50 at MK2 [3] was 0.501 to 0.999 µM.

`C=CC(=O)N1CCOc2ccc(-c3cc4c(cn3)CCc3c-4[nH]c4c3C(=O)NC3(CC3)C4)cc21` [II-12, 2′-(4-acryloyl-3,4-dihydro-2H-benzo[b][1,4]oxazin-6-yl)-5′,6′,10′,11′-tetrahydrospiro[cyclopropane-1,9′-pyrido[3′,4′:4,5]pyrrolo[2,3-f]isoquinolin]-7′(8′H)-one]: the IC50 in assay [1] is below 0.1 µM. Also, the “MK2 Mass Mod” value on MK2 [2] is “E (mass modification of ≥70%)”. Further, at MK2 [3], the EC50 lay within 0.501 to 0.999 µM.

For `C=CC(=O)Nc1cc(-c2ncc3c(n2)-c2[nH]c4c(c2CC3)C(=O)NCC4)cnc1OCCOC` [II-13, N-(2-(2-methoxyethoxy)-5-(7-oxo-6,7,8,9,10,11-hexahydro-5H-pyrido[3′,4′:4,5]pyrrolo[3,2-h]quinazolin-2-yl)pyridin-3-yl)acrylamide], the IC50 in assay [1] was below 0.1 µM. In addition, the “MK2 Mass Mod” value on MK2 [2] is listed as “E (mass modification of ≥70%)”. The EC50 at MK2 [3] was 0.101 to 0.5 µM.

As for `C=CC(=O)Nc1cc(-c2ncc3c(n2)-c2[nH]c4c(c2CC3)C(=O)NCC4)ccc1OCCOC` [II-15, N-(2-(2-methoxyethoxy)-5-(7-oxo-6,7,8,9,10,11-hexahydro-5H-pyrido[3′,4′:4,5]pyrrolo[3,2-h]quinazolin-2-yl)phenyl)acrylamide], the IC50 in assay [1] is below 0.1 µM. Moreover, the “MK2 Mass Mod” value on MK2 [2] is on record as “E (mass modification of ≥70%)”. In addition, the EC50 on MK2 [3] is below 0.1 µM.

`C=CC(=O)Nc1cc(-c2cc3c(cn2)CCc2c-3[nH]c3c2C(=O)NCC3)ccc1OCCOC` [II-16, N-(2-(2-methoxyethoxy)-5-(7-oxo-6,7,8,9,10,11-hexahydro-5H-pyrido[3′,4′:4,5]pyrrolo[2,3-f]isoquinolin-2-yl)phenyl)acrylamide]: in assay [1], the IC50 was below 0.1 µM. In addition, at MK2 [2], the “MK2 Mass Mod” value is listed as “E (mass modification of ≥70%)”. Besides, the EC50 at MK2 [3] is below 0.1 µM.

These data come from patent publication US11098061B2 (Celgene CAR LLC, priority 2013, dated 2021).
